Earlier results, collected in patent publication US20020120149A1, “Substituted hydrazine derivatives” (priority 2000, published 2002).

Tested on: NMDA receptor
Conditions: in vitro at concentrations at which clinical efficacy is seen

With O=C(CCCN1CCC(O)(c2ccc(Cl)cc2)CC1)c1ccc(F)cc1 [haloperidol] as the molecule, how does the “increase in NMDA receptor activity” value read?
Its value is ~40%.
